Consider 38 compounds from US20230416248A1, “COMPOUNDS AND USES THEREOF” (Foghorn Therapeutics Inc., priority 2020, published 2023).

One test has as its target T1, BRM (Homo sapiens, UniProt P51531).
T1 construct: made in house; host or cells: High Five insect cells
Nature of the test: ATPase catalytic activity of BRM, ADP-Glo in vitro biochemical assay. Particulars: for IC50: ATPase catalytic activity, ADP-Glo, 30 nM BRM, 400 μM ATP; for Ratio*: ratio of BRG1 IC50 to BRM IC50. In a few lines: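 Recombinant BRM (30 nM) hydrolysed 400 μM ATP with 20 nM salmon sperm DNA in pH 8 Tris buffer containing 20 mM MgCl2, 50 mM NaCl, 0.1% Tween-20 and 1 mM DTT, 1 h at room temperature. ADP formed was quantified by ADP-Glo luminescence.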
Background: In ADP-Glo the light output rises with the ADP produced.

Another test deals with T2, BRG-1 (Homo sapiens, UniProt P51532).
T2 construct: made in house; host or cells: High Five insect cells
T2 sequence (P51532 whole entry): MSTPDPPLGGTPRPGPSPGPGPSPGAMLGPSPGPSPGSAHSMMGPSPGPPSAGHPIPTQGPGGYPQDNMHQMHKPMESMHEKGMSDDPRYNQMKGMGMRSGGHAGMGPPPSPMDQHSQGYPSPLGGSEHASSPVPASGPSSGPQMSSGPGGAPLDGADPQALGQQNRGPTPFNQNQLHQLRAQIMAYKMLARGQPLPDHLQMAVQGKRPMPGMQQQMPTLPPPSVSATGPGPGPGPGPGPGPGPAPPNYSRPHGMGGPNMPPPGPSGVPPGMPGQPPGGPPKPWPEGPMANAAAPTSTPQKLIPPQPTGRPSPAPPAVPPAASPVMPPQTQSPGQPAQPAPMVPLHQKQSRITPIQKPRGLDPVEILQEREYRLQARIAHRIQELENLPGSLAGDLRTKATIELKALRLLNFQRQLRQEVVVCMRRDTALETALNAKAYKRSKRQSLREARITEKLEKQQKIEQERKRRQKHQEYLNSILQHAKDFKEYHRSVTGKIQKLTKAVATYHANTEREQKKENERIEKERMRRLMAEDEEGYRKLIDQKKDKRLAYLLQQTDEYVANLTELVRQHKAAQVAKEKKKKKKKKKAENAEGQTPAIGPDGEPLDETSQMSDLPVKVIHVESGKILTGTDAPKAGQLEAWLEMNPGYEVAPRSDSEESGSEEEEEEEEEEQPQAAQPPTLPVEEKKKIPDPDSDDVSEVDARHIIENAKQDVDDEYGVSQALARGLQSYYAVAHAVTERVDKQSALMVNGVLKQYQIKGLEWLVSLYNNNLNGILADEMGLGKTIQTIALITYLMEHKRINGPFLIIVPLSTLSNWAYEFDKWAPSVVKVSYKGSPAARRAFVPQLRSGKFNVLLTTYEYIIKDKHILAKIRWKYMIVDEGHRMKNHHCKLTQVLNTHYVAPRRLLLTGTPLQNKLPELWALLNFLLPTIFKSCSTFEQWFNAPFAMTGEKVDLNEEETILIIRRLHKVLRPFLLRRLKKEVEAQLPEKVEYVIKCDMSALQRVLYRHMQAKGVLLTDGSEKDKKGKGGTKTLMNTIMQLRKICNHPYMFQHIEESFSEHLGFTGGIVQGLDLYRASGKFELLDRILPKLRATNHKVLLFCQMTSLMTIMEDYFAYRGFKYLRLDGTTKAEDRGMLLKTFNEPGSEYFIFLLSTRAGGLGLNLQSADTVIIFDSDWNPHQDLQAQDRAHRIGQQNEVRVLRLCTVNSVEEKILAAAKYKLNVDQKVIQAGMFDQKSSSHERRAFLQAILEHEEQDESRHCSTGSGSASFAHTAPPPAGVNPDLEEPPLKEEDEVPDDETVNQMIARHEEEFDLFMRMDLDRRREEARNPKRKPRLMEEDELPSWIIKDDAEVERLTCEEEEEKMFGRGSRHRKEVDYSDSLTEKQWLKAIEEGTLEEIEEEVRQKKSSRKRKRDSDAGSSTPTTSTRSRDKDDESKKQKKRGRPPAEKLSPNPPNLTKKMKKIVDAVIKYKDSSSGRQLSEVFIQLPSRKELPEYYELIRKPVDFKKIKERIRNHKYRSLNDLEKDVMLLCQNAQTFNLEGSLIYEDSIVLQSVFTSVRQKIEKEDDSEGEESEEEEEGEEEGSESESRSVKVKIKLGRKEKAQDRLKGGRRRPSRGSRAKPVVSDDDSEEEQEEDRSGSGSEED
In words: ATPase catalytic activity of BRG-1, ADP-Glo in vitro biochemical assay. The settings on record: ATPase catalytic activity, ADP-Glo; 30 nM BRG-1, 400 μM ATP; read-out: BRG1 IC50. A digest of the protocol:
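BRG-1 ATPase activity was measured by ADP-Glo. Unconsumed ATP was depleted for 40 min at room temperature, then ADP was converted to ATP for 60 min and read as luminescence.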

T1 sequence (P51531 whole entry): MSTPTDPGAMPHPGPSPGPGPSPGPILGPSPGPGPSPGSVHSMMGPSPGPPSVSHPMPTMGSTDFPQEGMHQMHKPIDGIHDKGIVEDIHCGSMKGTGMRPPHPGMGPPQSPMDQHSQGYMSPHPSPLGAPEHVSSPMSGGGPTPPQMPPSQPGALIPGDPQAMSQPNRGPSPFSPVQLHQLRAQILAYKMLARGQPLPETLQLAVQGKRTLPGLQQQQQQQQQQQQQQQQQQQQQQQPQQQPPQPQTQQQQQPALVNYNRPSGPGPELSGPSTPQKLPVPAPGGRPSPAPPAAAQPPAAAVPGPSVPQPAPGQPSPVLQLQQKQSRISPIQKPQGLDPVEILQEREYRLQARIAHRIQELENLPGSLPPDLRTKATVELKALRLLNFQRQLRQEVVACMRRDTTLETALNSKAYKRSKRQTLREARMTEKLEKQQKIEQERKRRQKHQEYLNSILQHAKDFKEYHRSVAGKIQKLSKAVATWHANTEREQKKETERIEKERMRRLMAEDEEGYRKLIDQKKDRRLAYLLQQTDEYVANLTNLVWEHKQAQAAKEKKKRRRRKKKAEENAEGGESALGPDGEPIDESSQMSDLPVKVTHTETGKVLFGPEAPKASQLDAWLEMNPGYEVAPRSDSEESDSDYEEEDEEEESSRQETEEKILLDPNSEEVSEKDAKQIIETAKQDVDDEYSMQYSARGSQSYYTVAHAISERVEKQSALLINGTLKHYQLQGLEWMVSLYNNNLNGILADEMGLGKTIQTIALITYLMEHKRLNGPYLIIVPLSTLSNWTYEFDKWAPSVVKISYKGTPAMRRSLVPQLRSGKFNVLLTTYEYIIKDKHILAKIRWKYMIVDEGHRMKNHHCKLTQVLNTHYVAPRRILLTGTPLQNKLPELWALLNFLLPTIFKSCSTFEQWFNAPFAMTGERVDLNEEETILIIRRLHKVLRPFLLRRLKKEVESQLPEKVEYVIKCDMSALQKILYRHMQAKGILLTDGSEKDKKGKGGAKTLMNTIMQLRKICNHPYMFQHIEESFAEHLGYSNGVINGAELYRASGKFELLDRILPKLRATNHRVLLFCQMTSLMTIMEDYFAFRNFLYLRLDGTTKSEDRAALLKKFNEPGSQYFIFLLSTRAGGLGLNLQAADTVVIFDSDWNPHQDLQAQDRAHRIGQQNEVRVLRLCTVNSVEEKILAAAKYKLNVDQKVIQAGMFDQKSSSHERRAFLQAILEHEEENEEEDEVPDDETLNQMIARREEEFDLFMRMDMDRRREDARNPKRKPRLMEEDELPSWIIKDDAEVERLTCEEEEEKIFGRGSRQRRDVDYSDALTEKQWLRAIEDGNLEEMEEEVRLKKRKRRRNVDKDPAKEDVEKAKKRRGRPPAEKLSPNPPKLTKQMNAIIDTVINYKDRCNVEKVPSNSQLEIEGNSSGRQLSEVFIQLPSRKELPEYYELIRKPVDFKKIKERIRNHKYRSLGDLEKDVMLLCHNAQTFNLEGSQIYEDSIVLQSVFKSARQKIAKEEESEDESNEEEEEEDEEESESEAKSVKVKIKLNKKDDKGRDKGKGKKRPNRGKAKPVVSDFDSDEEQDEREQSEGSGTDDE

As a reminder, the IC50 is the concentration at which inhibition is half-maximal. For `O=C(NCc1cc2nc(-c3cccc(N(C4CCOCC4)C4CC4)n3)ccc2cn1)c1ccc2c(c1)S(=O)(=O)CCOC2` [Compound 398], at BRM, the IC50 came to 185 nM and the “Ratio*” value is on record as 4.97. Besides, at BRG-1, the half-inhibitory concentration (IC50) was found to be 919 nM.

Take `COc1nc(-c2ccc3cnc(CNC(=O)c4ccc5c(c4)S(=O)(=O)CCOC5)cc3n2)ccc1C(F)F` [Compound 399]: at BRM, inhibition was half-maximal at 7.8 nM (IC50) and the “Ratio*” value worked out at 14.57. For the same compound, the IC50 on BRG-1 is 114 nM.

As for `COCCn1ncc2c1CCCN2c1ccc2cnc(CNC(=O)c3ccc4c(c3)S(=O)(=O)CCOC4)cc2n1` [Compound 400], on BRM, half-maximal inhibition (IC50) required 20.4 nM and the “Ratio*” value is given as 23.51. Besides, the half-maximal inhibitory concentration (IC50) at BRG-1 came out at 478 nM.

`COCCN1CCOc2c(-c3ccc4cnc(CNC(=O)c5ccc6c(c5)S(=O)(=O)CCOC6)cc4n3)ccc(F)c21` [Compound 402]: the values for the half-inhibitory concentration (IC50) against BRM and on BRG-1 were 5.7 nM and 60.9 nM, respectively. The “Ratio*” value on BRM is on record as 10.67.

Consider `COc1nc(C(F)F)ccc1-c1ccc2cnc(CNC(=O)c3cc(F)c4c(c3)S(=O)(=O)CCOC4)cc2n1` [Compound 404], for which, on BRM, the IC50 was 8.4 nM and the “Ratio*” value turned out to be 17.03. Moreover, on BRG-1, the half-inhibitory concentration (IC50) is 142 nM.

For `COc1nc(C(F)F)ccc1-c1ccc2cnc(CNC(=O)c3ccc4c(c3)S(=O)(=O)[C@@H](C)COC4)cc2n1` [Compound 405], at BRM, the half-inhibitory concentration (IC50) was 10.9 nM and the “Ratio*” value was 17.27. The IC50 at BRG-1 was determined as 188 nM.

Turning to `C[C@@H]1CN(c2cccc(-c3ccc4nnc(CNC(=O)c5ccc(Cl)c(S(C)(=O)=O)c5)cc4n3)n2)C[C@H](C)O1` [Compound 406], the concentration for half-maximal inhibition (IC50) against BRM worked out at 5 nM; at BRG-1, 69.7 nM. Also, the “Ratio*” value at BRM was 13.86.

In the case of `C[C@@H]1CN(c2cccc(-c3ccc4cnc(CNC(=O)c5cnc6c(c5)S(=O)(=O)CCCC6(F)F)cc4n3)n2)C[C@H](C)O1` [Compound 407], the IC50 against BRM was found to be 12.5 nM; on BRG-1, 58.6 nM. Besides, the “Ratio*” value on BRM was determined as 4.69.

As for `Cc1ccc2c(n1)CN(c1ccc3cnc(CNC(=O)c4ccc5c(c4)S(=O)(=O)CCOC5)cc3n1)CC2` [Compound 408], at BRM, the half-maximal inhibitory concentration (IC50) turned out to be 476 nM and the “Ratio*” value is listed as 4.77. Further, the IC50 on BRG-1 turned out to be 2270 nM.

With `O=C(NCc1cc2nc(-c3cccc4c3OCC[C@H]4OC3COC3)ccc2cn1)c1ccc2c(c1)S(=O)(=O)CCOC2` [Compound 409], the values for the IC50 on BRM and on BRG-1 were 16.6 nM and 143 nM, respectively. In addition, the “Ratio*” value on BRM worked out at 8.58.

In the case of `O=C(NCc1cc2nc(-c3cccc4c3OCC[C@@H]4OC3COC3)ccc2cn1)c1ccc2c(c1)S(=O)(=O)CCOC2` [Compound 410], the IC50 against BRM was 165 nM; on BRG-1, 1100 nM. Moreover, the “Ratio*” value on BRM turned out to be 6.68.

For `COc1nc(C)ccc1-c1ccc2cnc(CNC(=O)c3ccc4c(c3)S(=O)(=O)[C@@H](C)COC4)cc2n1` [Compound 411], the concentration for half-maximal inhibition (IC50) at BRM turned out to be 14.6 nM; on BRG-1, 275 nM. Further, on BRM, the “Ratio*” value worked out at 18.90.

Take `COC[C@H]1C[C@H]1N(C)c1cccc(-c2ccc3cnc(CNC(=O)c4ccc5c(c4)S(=O)(=O)CCOC5)cc3n2)n1` [Compound 412]: on BRM, the midpoint of inhibition, the IC50, lay at 76.5 nM and the “Ratio*” value came to 8.53. At BRG-1, the IC50 was 653 nM.

Turning to `COC[C@@H]1C[C@@H]1N(C)c1cccc(-c2ccc3cnc(CNC(=O)c4ccc5c(c4)S(=O)(=O)CCOC5)cc3n2)n1` [Compound 413], at BRM, the IC50 amounted to 12.9 nM and the “Ratio*” value amounted to 16.27. The IC50 on BRG-1 was 210 nM.

As for `CC1CCc2ccc(-c3ccc4cnc(CNC(=O)c5ccc6c(c5)S(=O)(=O)CCOC6)cc4n3)nc2N1C` (stereo not drawn) [Compound 414], on BRM, the concentration for half-maximal inhibition (IC50) worked out at 23.3 nM and the “Ratio*” value turned out to be 8.27. The half-inhibitory concentration (IC50) on BRG-1 turned out to be 193 nM.

For the compound `C[C@@H]1CN(c2cccc(-c3ccc4cnc(CNC(=O)c5ccc6c(c5)S(=O)(=O)CCCN6C)cc4n3)n2)C[C@H](C)O1` [Compound 415], at BRM, the IC50 is 20.6 nM and the “Ratio*” value is given as 23.93. For the same compound, on BRG-1, the IC50 came to 494 nM.

For `C[C@@H]1CCS(=O)(=O)c2cc(C(=O)NCc3cc4nc(-c5cccc(N6C[C@@H](C)O[C@@H](C)C6)n5)ccc4cn3)ccc2O1` [Compound 416], at BRM, the IC50 came out at 98.3 nM and the “Ratio*” value was found to be 21.63. Moreover, on BRG-1, the half-inhibitory concentration (IC50) came out at 2130 nM.

Turning to `C[C@@H]1CN(c2cccc(-c3ccc4cnc(CNC(=O)c5ccc6c(c5)S(=O)(=O)CC[C@H](C)O6)cc4n3)n2)C[C@H](C)O1` [Compound 418], the IC50 was 13.6 nM against BRM and 193 nM at BRG-1. Further, the “Ratio*” value at BRM came out at 14.19.

With `COc1cc(C(C)(F)F)ccc1-c1ccc2cnc(CNC(=O)c3ccc4c(c3)S(=O)(=O)CCOC4)cc2n1` [Compound 419], the IC50 came to 24.5 nM on BRM and 384 nM on BRG-1. On BRM, the “Ratio*” value is reported as 15.63.

Regarding `Cc1ccc2c(c1)OCCN2c1ccc2cnc(CNC(=O)c3ccc4c(c3)S(=O)(=O)CCOC4)cc2n1` [Compound 420], on BRM, the IC50 came out at 4.2 nM and the “Ratio*” value amounted to 10.13. Moreover, the IC50 at BRG-1 worked out at 42.6 nM.

Consider `O=C(NCc1cc2nc(-c3cccc4c3CC3COCCN43)ccc2cn1)c1ccc2c(c1)S(=O)(=O)CCOC2` (stereo not drawn) [Compound 421], for which, at BRM, the half-inhibitory concentration (IC50) was 56.8 nM and the “Ratio*” value is given as 14.57. Further, the half-maximal inhibitory concentration (IC50) on BRG-1 stood at 828 nM.

As to `O=C(NCc1cc2nc(-c3cccc(C4CC4)n3)ccc2nn1)c1cc(F)c2c(c1)S(=O)(=O)CCOC2` [Compound 422], at BRM, 10.9 nM corresponded to half-maximal inhibition (IC50) and the “Ratio*” value is on record as 28.45. For the same compound, the half-maximal inhibitory concentration (IC50) on BRG-1 stood at 310 nM.

On to `C[C@H]1COCc2ccc(C(=O)NCc3cc4nc(-c5cccc(C6CC6)n5)ccc4nn3)cc2S1(=O)=O` [Compound 423], for which, at BRM, the 50% inhibitory concentration (IC50) is 15.2 nM and the “Ratio*” value worked out at 32.23. Further, on BRG-1, the IC50 amounted to 491 nM.

Take `O=C(NCc1cc2nc(-c3cccc(C4CC4)n3)cnc2cn1)c1cc(F)c2c(c1)S(=O)(=O)CCOC2` [Compound 424]: on BRM, 20.8 nM corresponded to half-maximal inhibition (IC50) and the “Ratio*” value was 29.03. Moreover, at BRG-1, the IC50 turned out to be 603 nM.

For the compound `CC1CCc2ccc(-c3ccc4cnc(CNC(=O)c5ccc6c(c5)S(=O)(=O)CCOC6)cc4n3)nc2N1C1CC1` (stereo not drawn) [Compound 425], on BRM, half-maximal inhibition (IC50) required 101 nM and the “Ratio*” value is 9.58. Further, the IC50 at BRG-1 is 966 nM.

Consider `CC1COc2ccc(-c3ccc4cnc(CNC(=O)c5ccc6c(c5)S(=O)(=O)CCOC6)cc4n3)nc2N1C` (stereo not drawn) [Compound 426], for which, on BRM, the IC50 came to 23.8 nM and the “Ratio*” value was found to be 5.71. Besides, the IC50 on BRG-1 was determined as 136 nM.

On to `O=C(NCc1cc2nc(-c3cccc(OC4CC4(F)F)n3)ccc2cn1)c1ccc2c(c1)S(=O)(=O)CCOC2` (stereo not drawn) [Compound 427], for which, on BRM, the IC50 came to 47.3 nM and the “Ratio*” value was found to be 9.12. The IC50 on BRG-1 was 431 nM.

`O=C(NCc1cc2nc(-c3cccc(N(CC4COC4)C4CC4)n3)ccc2cn1)c1ccc2c(c1)S(=O)(=O)CCOC2` [Compound 428]: at BRM, the IC50 amounted to 50.3 nM and the “Ratio*” value came out at 6.45. The IC50 on BRG-1 was found to be 324 nM.

As to `Cc1cnc2c(c1C)CCCN2c1ccc2cnc(CNC(=O)c3ccc4c(c3)S(=O)(=O)CCOC4)cc2n1` [Compound 429], on BRM, half-maximal inhibition (IC50) was put at 7.4 nM and the “Ratio*” value worked out at 10.32. The IC50 on BRG-1 turned out to be 76.4 nM.

Take `COc1c(-c2ccc3cnc(CNC(=O)c4ccc5c(c4)S(=O)(=O)CCOC5)cc3n2)cccc1C1CC1` [Compound 430]: on BRM, the half-maximal inhibitory concentration (IC50) was determined as 477 nM and the “Ratio*” value is on record as 5.06. For the same compound, the IC50 on BRG-1 was 2410 nM.

As for `C[C@@H]1CN(c2cccc(-c3ccc4cnc(CNC(=O)c5cc(Cl)c6c(c5)S(=O)(=O)[C@@H](C)COC6)cc4n3)n2)C[C@H](C)O1` [Compound 431], the results for the IC50 on BRM and on BRG-1 were 16.1 nM and 152 nM, respectively. Besides, at BRM, the “Ratio*” value came out at 9.43.

As for `C[C@@H]1CN(c2cccc(-c3ccc4cnc(CNC(=O)c5ccc6c(c5)S(=O)(=O)CC[C@@H](C5CC5)O6)cc4n3)n2)C[C@H](C)O1` [Compound 433], on BRM, inhibition was half-maximal at 331 nM (IC50) and the “Ratio*” value is 13.59. For the same compound, the half-maximal inhibitory concentration (IC50) at BRG-1 came to 4500 nM.

In the case of `O=C(NCc1cc2nc(-c3cncc(C4CC4)n3)ccc2cn1)c1cnc2c(c1)S(=O)(=O)CCCC2(F)F` [Compound 434], on BRM, 118 nM corresponded to half-maximal inhibition (IC50) and the “Ratio*” value is 13.52. Moreover, the IC50 at BRG-1 amounted to 1590 nM.

Consider `C[C@@H]1CN(c2cccc(-c3ccc4cnc(CNC(=O)c5ccc6c(c5)S(=O)(=O)CC[C@H](C5CC5)O6)cc4n3)n2)C[C@H](C)O1` [Compound 435], for which, on BRM, it took 230 nM to reach half-maximal inhibition (IC50) and the “Ratio*” value was 18.45. The IC50 at BRG-1 was 4250 nM.

On to `COC[C@H]1C[C@@H](N(C)c2cccc(-c3ccc4cnc(CNC(=O)c5ccc6c(c5)S(=O)(=O)CCOC6)cc4n3)n2)C1` [Compound 436], for which the half-maximal inhibitory concentration (IC50) against BRM was 15 nM; on BRG-1, 226 nM. Moreover, the “Ratio*” value on BRM stood at 15.10.

Consider `CO[C@H]1CCN(c2cccc(-c3ccc4cnc(CNC(=O)c5ccc6c(c5)S(=O)(=O)CCOC6)cc4n3)n2)C[C@H]1C` [Compound 437], for which, on BRM, 24.8 nM corresponded to half-maximal inhibition (IC50) and the “Ratio*” value was found to be 11.79. For the same compound, the IC50 on BRG-1 is 292 nM.

As for `CO[C@@H]1CCN(c2cccc(-c3ccc4cnc(CNC(=O)c5ccc6c(c5)S(=O)(=O)CCOC6)cc4n3)n2)C[C@@H]1C` [Compound 438], on BRM, the half-inhibitory concentration (IC50) worked out at 31.8 nM and the “Ratio*” value was found to be 11.23. Besides, the IC50 on BRG-1 worked out at 357 nM.

With `COc1ccnc2c1CCCN2c1ccc2cnc(CNC(=O)c3ccc4c(c3)S(=O)(=O)CCOC4)cc2n1` [Compound 439], on BRM, the IC50 was 4.4 nM and the “Ratio*” value is 10.04. The IC50 at BRG-1 came to 43.8 nM.
